Measured values taken from PMC8175350, “Drug repurposing screens identify chemical entities for the development of COVID-19 interventions” (Nature Communications, 2021).
pEC50: −log10 of the molar value. Read-outs that look alike come from different tables or passages of the source.

How the values were obtained:
[1] = Uninfected HeLa-ACE2 24 h live/dead cytotoxicity counter screen; type: cell-based, human; conditions: human, uninfected HeLa-ACE2 cells, detail block; read-out: HeLa-ACE2 uninfected cytotoxicity CC50 GeoMean
[2] = test system: HeLa-ACE2 cells; experiment: as above; type: cell-based, human; conditions: curve plateau at infinite concentration
[3] = test system: HeLa-ACE2 cells; experiment: cells; conditions: Homo sapiens; for pEC50: HeLa-ACE2, read-out: HeLa-ACE2 cell count EC50 GeoMean, detail block; for Emax: HeLa-ACE2, 24 h, read-out: HeLa-ACE2 cell count Sinf Average
[4] = test system: SARS-CoV-2; experiment: microbe, parasite or virus in culture; type: cell-based; conditions: for Emax: Severe acute respiratory syndrome coronavirus 2, HeLa-ACE2, 24 h, curve plateau at infinite concentration, read-out: HeLa-ACE2 CoV-2 Sinf Average; for pEC50: Severe acute respiratory syndrome coronavirus 2, HeLa-ACE2, detail block, read-out: HeLa-ACE2 CoV-2 EC50 GeoMean
[5] = Uninfected Calu-3 48 h Cell-Titer Glo cytotoxicity counter screen; conditions: human, uninfected Calu-3 cells, Calu-3 uninfected cytotoxicity CC50 GeoMean, detail block
[6] = test system: Calu-3 cells; experiment: as above; conditions: curve plateau at infinite concentration
[7] = test system: Calu-3 cells; experiment: cells; conditions: Homo sapiens; for Emax: Calu-3, 48 h, read-out: Calu-3 cell count Sinf Average; for pEC50: Calu-3, read-out: Calu-3 cell count EC50 GeoMean, detail block
[8] = test system: SARS-CoV-2; experiment: microbe, parasite or virus in culture; type: cell-based; conditions: for Emax: Severe acute respiratory syndrome coronavirus 2, Calu-3, 48 h, curve plateau at infinite concentration, read-out: Calu-3 CoV-2 Sinf Average; for pEC50: Severe acute respiratory syndrome coronavirus 2, Calu-3, detail block, read-out: Calu-3 CoV-2 EC50 GeoMean
[9] = test system: HepG2; experiment: HepG2 72 h CellTiter-Glo cytotoxicity; conditions: 72 h
[10] = HepG2 72 h CellTiter-Glo cytotoxicity; conditions: human, HepG2 cells
[11] = HEK293T 72 h CellTiter-Glo cytotoxicity; conditions: human, HEK293T cells
[12] = test system: HEK293T; experiment: HEK293T 72 h CellTiter-Glo cytotoxicity; conditions: 72 h
[13] = test system: HeLa-ACE2 cells; experiment: cells; type: cell-based, human; conditions: Homo sapiens, HeLa-ACE2; read-out: HeLa-ACE2 TOA cell count EC50 GeoMean
[14] = test system: SARS-CoV-2; experiment: microbe, parasite or virus in culture; type: cell-based; conditions: for Emax: Severe acute respiratory syndrome coronavirus 2, HeLa-ACE2, 10 h, curve plateau at infinite concentration, read-out: HeLa-ACE2 TOA CoV-2 Sinf Average; for pEC50: Severe acute respiratory syndrome coronavirus 2, HeLa-ACE2, detail block, read-out: HeLa-ACE2 TOA CoV-2 EC50 GeoMean
[15] = test system: Calu-3 cells; conditions: for Calu-3 uninfected cytotoxicity Sinf Average: human, 48 h
[16] = test system: HEK293T; conditions: human
[17] = in vitro; conditions: human, Calu-3 uninfected cytotoxicity CC50 GeoMean
[18] = test system: HepG2; conditions: human
[19] = test system: SARS-CoV-2; type: cell-based; conditions: combination with remdesivir
[20] = selectivity index, uninfected HeLa-ACE2 CC50 / SARS-CoV-2 EC50
[21] = selectivity index, uninfected Calu-3 CC50 / Calu-3 SARS-CoV-2 EC50
[22] = TOA EC50 / HeLa-ACE2 SARS-CoV-2 EC50

| Compound | CC50 at 24 h [1] [µM] | HeLa-ACE2 uninfected cytotoxicity Sinf Average [2] [%] | pEC50 [3] | Emax [4] [%] | pEC50 [4] | HeLa-ACE2 SI [4, 20] | Emax [7] [%] | pEC50 [7] | Emax [8] [%] | pEC50 [8] | HepG2 72-hour cytotoxicity Sinf Average [9] [%] | pEC50 [13] | Emax [14] [%] | pEC50 [14] | TOA:HeLa-ACE2 EC50 Ratio [14, 22] | uninfected Calu-3 CC50 [15] | Calu-3 uninfected cytotoxicity Sinf Average [15] [%] | HEK293T 72-hour cytotoxicty Sinf Average ([16]; 72 h) [%] | CC50 at 48 h [17] [µM] | HepG2 72-hour cytotoxicity Sinf Average ([18]; 72 h) [%] | further results |
| --- | --- | --- | --- | --- | --- | --- | --- | --- | --- | --- | --- | --- | --- | --- | --- | --- | --- | --- | --- | --- | --- |
| COC(=O)[C@H]1[C@H]2C[C@@H]3c4[nH]c5cc(OC)ccc5c4CCN3C[C@H]2C[C@@H](OC(=O)c2cc(OC)c(OC)c(OC)c2)[C@@H]1OC [Reserpine] | > 36.4 | -100 | < 5.02 | 100 | < 5.26 | > 6.60 | 100 | < 5.00 | 100 | < 5.00 | -100 | < 5.02 | 100 | 5.52 | – | – | – | – | – | – | CC50 at 48 h [5]: > 28.5 µM; Calu-3 uninfected cytotoxicity Sinf Average [6]: -100%; Calu-3 SI [8, 21]: 2.85; CC50 at 72 h [10]: 33 µM; CC50 at 72 h [11]: 11.7 µM; HEK293T 72-hour cytotoxicty Sinf Average [12]: -100%; TOA:HeLa-ACE2 EC50 Ratio [14]: 0.542 |
| CCCCCCOC(=O)NC(=N)c1ccc(NCc2nc3cc(C(=O)N(CCC(=O)OCC)c4ccccn4)ccc3n2C)cc1 [Dabigatran etexilate mesilate] | > 26.5 | -97 | < 5.02 | 100 | 5.39 | – | 100 | < 5.00 | – | < 5.00 | -96 | < 5.02 | 100 | < 5.02 | 2.329 | – | – | – | – | – | HeLa-ACE2 SI [4]: > 6.50; CC50 at 48 h [5]: > 29.9 µM; Calu-3 uninfected cytotoxicity Sinf Average [6]: -100%; CC50 at 72 h [10]: 13.1 µM; CC50 at 72 h [11]: 8.53 µM; HEK293T 72-hour cytotoxicty Sinf Average [12]: -101% |
| O=C(CCCN1CCN(c2ccc(F)cc2)CC1)NC1c2ccccc2CSc2ccccc21 (stereo not shown) [Monatepil] | > 39 | -100 | < 5.02 | 100 | < 5.11 | > 5.01 | -100 | < 5.00 | 100 | < 5.00 | – | < 5.02 | 100 | 5.24 | 0.732 | > 29.9 ×÷ 1.002 (n=4) μM | -100 | -46 | > 29.9 | – | – |
| CN1[C@@H]2CC[C@H]1C[C@@H](N1Cc3ccc4ccccc4c3C1=O)C2 [CR-3124] | > 39.8 | -100 | < 5.02 | 100 | 5.22 | – | – | < 5.00 | – | < 5.00 | -100 | < 5.02 | 100 | < 5.02 | 1.607 | – | – | – | – | – | HeLa-ACE2 SI [4]: > 6.67; Calu-3 uninfected cytotoxicity Sinf Average [6]: -100%; HEK293T 72-hour cytotoxicty Sinf Average [12]: -100%; CC50 ([17]; detail block): > 29.9 µM |
| COC(CNCC(C)C)COc1c(C)csc1C(=O)CCc1ccccc1 (stereo not shown) [LG-6-101] | > 35.6 | -100 | < 5.02 | 100 | 5.46 | – | 100 | < 5.00 | 83 | < 5.00 | – | < 5.02 | 100 | < 5.04 | 2.655 | > 29.079 ×÷ 1.048 (n=3) μM | -100 | -100 | > 29.1 | -100 | Calu-3 SI [8, 21]: 2.91 |
| COc1ccc2cc1Oc1ccc(cc1)C[C@H]1c3c(cc4c(c3Oc3cc5c(cc3OC)CCN(C)[C@@H]5C2)OCO4)CCN1C [Cepharanthine] | > 25.4 | -100 | < 5.02 | 98 | 6.01 | – | – | < 5.00 | – | < 5.00 | – | < 5.02 | 100 | < 5.02 | 9.613 | > 27.816 ×÷ 1.096 (n=3) μM | -100 | -103 | > 27.8 | -100 | HeLa-ACE2 SI [4]: > 25.76; Calu-3 SI [8]: 2.79 |
| N#Cc1c(N)nc(N)nc1N[C@H](c1nc2c(F)ccc(Cl)c2c(=O)n1-c1cccnc1)C1CC1 [GS-9901] | > 31.1 | -100 | < 5.02 | 100 | 5.42 | – | -100 | < 5.00 | – | < 5.00 | – | < 5.02 | – | < 5.02 | 2.519 | > 29.867 ×÷ 1.001 (n=3) μM | – | -97 | > 29.9 | -100 | Emax [3]: 100%; HeLa-ACE2 SI [4]: > 8.17 |
| CCN(CC)CCCC(C)Nc1ccnc2cc(Cl)ccc12 (stereo not shown) [Chloroquine, DualTPharma, Chloroquine] | > 39.8 | -100 | < 5.02 | 107 | 6.05 | – | – | < 5.01 | – | < 5.01 | – | < 5.02 | – | < 5.02 | – | – | – | – | – | – | HEK293T 72-hour cytotoxicty Sinf Average [16]: -100%; HepG2 72-hour cytotoxicity Sinf Average [18]: -100% |
| CCN(CC)Cc1cc(Nc2ccnc3cc(Cl)ccc23)ccc1O [Amodiaquine] | > 39.8 | -89 | < 6.06 | 102 | 5.92 | > 33.48 | – | < 5.01 | – | < 5.01 | -80 | < 5.02 | – | < 5.02 | – | – | – | – | – | – | Emax [3]: -26%; CC50 at 72 h [10]: 3.76 µM; CC50 at 72 h [11]: 10 µM; HEK293T 72-hour cytotoxicty Sinf Average [12]: -87%; TOA:HeLa-ACE2 EC50 Ratio [14]: 8.060 |
| N#Cc1ccc2c(c1)[C@H]1CN(CCCCNC(=O)c3ccc(-c4ccccc4)cc3)C[C@@H]1CO2 [S-33084] | > 24.8 | -100 | < 5.02 | 100 | 5.41 | > 6.34 | – | < 5.00 | – | < 5.00 | – | < 5.02 | 100 | 5.41 | 1.005 | > 22.75 ×÷ 1.601 (n=3) μM | -100 | -100 | > 22.8 | -100 | Calu-3 SI [8, 21]: 2.28 |
| CN1CCN(c2ccc(C(=O)NCc3cnc(C#N)nc3NCC(C)(C)C)cc2)CC1 [Dutacatib] | > 36.1 | -100 | < 5.02 | 101 | 5.57 | > 13.43 | 100 | < 5.00 | 96 | < 5.00 | – | < 5.02 | 100 | < 5.03 | 3.480 | > 29.867 ×÷ 1.001 (n=3) μM | -100 | -100 | > 29.9 | -100 | HeLa-ACE2 synergy score with remdesivi [19]: 2.955 δ |
